Test results reported in the supplement of paper PMC4862054.

How the values were obtained:
Assay in all cases: drug sensitivity score (DSS), CellTiter-Glo (DSS (AUC-based score)); higher = stronger drug effect (viability inhibition or cytotoxicity); extreme values may be limits of the assay
Conditions in all cases: incubation time: 72 h
BT-549 = tested on: BT-549
Procedure, shortened: (§1)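 Breast cancer cell lines were seeded in 20 µl suspension into 384-well plates already holding compound and incubated for 72 h. Each compound was tested at 5 concentrations in 10-fold steps across its own 10,000-fold range. Plates were normalised to 0.1 % DMSO and a positive kill control after CellTox Green and then CellTiter-Glo readings. The area under the fitted dose-response curve served as the basis for the drug sensitivity score.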

CAL-120 = tested on: CAL-120
Procedure, shortened: as §1

CAL-148 = tested on: CAL-148
Procedure, shortened: as §1

CAL-51 = tested on: CAL-51
Procedure, shortened: as §1

CAL-85-1 = tested on: CAL-85-1
Procedure, shortened: as §1

HCC1143 = tested on: HCC1143
Procedure, shortened: as §1

HCC1599 = tested on: HCC1599
Procedure, shortened: as §1

MDA-MB-436 = tested on: MDA-MB-436
Procedure, shortened: as §1

MFM-223 = tested on: MFM-223
Procedure, shortened: as §1

With `O=C(O)c1ccc(-c2c[nH]c3ncc(-c4ccccc4)cc23)cc1C1CCCC1` the drug sensitivity score (BT-549) was 0, the drug sensitivity score (CAL-120) was 0 and the drug sensitivity score (CAL-148) was 0. It also gave a drug sensitivity score (CAL-51) of 0, a drug sensitivity score (CAL-85-1) of 0 and a drug sensitivity score (HCC1143) of 0. It also gave a drug sensitivity score (HCC1599) of 0, a drug sensitivity score (MDA-MB-436) of 0 and a drug sensitivity score (MFM-223) of 0.

Work on `CNCc1ccc(-c2[nH]c3cc(F)cc4c3c2CCNC4=O)cc1` [Rucaparib] yielded a drug sensitivity score (BT-549) of 0.12, a drug sensitivity score (CAL-120) of 0 and a drug sensitivity score (CAL-148) of 1.62. The drug sensitivity score (CAL-51) was 0, the drug sensitivity score (CAL-85-1) was 0 and the drug sensitivity score (HCC1143) was 0. The drug sensitivity score (HCC1599) was 0, the drug sensitivity score (MDA-MB-436) was 1.14 and the drug sensitivity score (MFM-223) was 0.

Work on `Oc1nc(-c2ccc(C(F)(F)F)cc2)nc2c1CSCC2` [XAV-939] yielded a drug sensitivity score (BT-549) of 0, a drug sensitivity score (CAL-120) of 0 and a drug sensitivity score (CAL-148) of 0. It also gave a drug sensitivity score (CAL-51) of 8.6, a drug sensitivity score (CAL-85-1) of 0 and a drug sensitivity score (HCC1143) of 0. It also gave a drug sensitivity score (HCC1599) of 0, a drug sensitivity score (MDA-MB-436) of 0 and a drug sensitivity score (MFM-223) of 0.

`COc1cc2nccc(Oc3ccc(NC(=O)C4(C(=O)Nc5ccc(F)cc5)CC4)cc3)c2cc1OC` [Cabozantinib] was tested, and the drug sensitivity score (BT-549) was 0, the drug sensitivity score (CAL-120) was 0 and the drug sensitivity score (CAL-148) was 0. The drug sensitivity score (CAL-51) was 0, the drug sensitivity score (CAL-85-1) was 0 and the drug sensitivity score (HCC1143) was 0. It also gave a drug sensitivity score (HCC1599) of 0, a drug sensitivity score (MDA-MB-436) of 0 and a drug sensitivity score (MFM-223) of 0.

`N#CCNC(=O)c1ccc(-c2ccnc(Nc3ccc(N4CCOCC4)cc3)n2)cc1` [Momelotinib] showed a drug sensitivity score (BT-549) of 6.02, a drug sensitivity score (CAL-120) of 5.07 and a drug sensitivity score (CAL-148) of 0. For the same compound, the drug sensitivity score (CAL-51) was 0, the drug sensitivity score (CAL-85-1) was 4.3 and the drug sensitivity score (HCC1143) was 1.42. The drug sensitivity score (HCC1599) was 0, the drug sensitivity score (MDA-MB-436) was 0 and the drug sensitivity score (MFM-223) was 0.

Compound `CS(=O)(=O)c1ccc(C2=C(c3ccccc3)C(=O)OC2)cc1` [Rofecoxib] has a drug sensitivity score (BT-549) of 0, a drug sensitivity score (CAL-120) of 0 and a drug sensitivity score (CAL-148) of 0. For the same compound, the drug sensitivity score (CAL-51) was 0.464, the drug sensitivity score (CAL-85-1) was 0 and the drug sensitivity score (HCC1143) was 0. It also gave a drug sensitivity score (HCC1599) of 0, a drug sensitivity score (MDA-MB-436) of 0 and a drug sensitivity score (MFM-223) of 0.

`COc1cc2ncnc(Nc3ccc(F)c(Cl)c3)c2cc1NC(=O)/C=C/CN1CCCCC1` [Dacomitinib] gave a drug sensitivity score (BT-549) of 1.11, a drug sensitivity score (CAL-120) of 0 and a drug sensitivity score (CAL-148) of 0. For the same compound, the drug sensitivity score (CAL-51) was 0, the drug sensitivity score (CAL-85-1) was 8.62 and the drug sensitivity score (HCC1143) was 0. It also gave a drug sensitivity score (HCC1599) of 0, a drug sensitivity score (MDA-MB-436) of 0.907 and a drug sensitivity score (MFM-223) of 0.

`CCCCCCCCCCCCCCCCCCOP(=O)([O-])OC1CC[N+](C)(C)CC1` [Perifosine] showed a drug sensitivity score (BT-549) of 0, a drug sensitivity score (CAL-120) of 0 and a drug sensitivity score (CAL-148) of 0. The drug sensitivity score (CAL-51) was 0, the drug sensitivity score (CAL-85-1) was 0 and the drug sensitivity score (HCC1143) was 0. For the same compound, the drug sensitivity score (HCC1599) was 0, the drug sensitivity score (MDA-MB-436) was 0.0848 and the drug sensitivity score (MFM-223) was 0.

`C[C@]12CC[C@@H]3c4ccc(O)cc4C[C@@H](CCCCCCCCC[S+]([O-])CCCC(F)(F)C(F)(F)F)[C@H]3[C@@H]1CC[C@@H]2O` (some centres not stated) [Fulvestrant] gave a drug sensitivity score (BT-549) of 0, a drug sensitivity score (CAL-120) of 0 and a drug sensitivity score (CAL-148) of 0. The drug sensitivity score (CAL-51) was 0, the drug sensitivity score (CAL-85-1) was 0 and the drug sensitivity score (HCC1143) was 0. The drug sensitivity score (HCC1599) was 0, the drug sensitivity score (MDA-MB-436) was 0 and the drug sensitivity score (MFM-223) was 0.

For `CCC1(c2ccc(N)cc2)CCC(=O)NC1=O` (configuration not stated) [Aminoglutethimide], the drug sensitivity score (BT-549) was 0, the drug sensitivity score (CAL-120) was 0 and the drug sensitivity score (CAL-148) was 0. The drug sensitivity score (CAL-51) was 0, the drug sensitivity score (CAL-85-1) was 0 and the drug sensitivity score (HCC1143) was 0. The drug sensitivity score (HCC1599) was 0, the drug sensitivity score (MDA-MB-436) was 0 and the drug sensitivity score (MFM-223) was 0.

`CN(N=O)C(=O)N[C@@H](C=O)[C@@H](O)[C@H](O)[C@H](O)CO` [Streptozocin] was tested, and the drug sensitivity score (BT-549) was 0, the drug sensitivity score (CAL-120) was 0 and the drug sensitivity score (CAL-148) was 0. For the same compound, the drug sensitivity score (CAL-51) was 0, the drug sensitivity score (CAL-85-1) was 0 and the drug sensitivity score (HCC1143) was 0. For the same compound, the drug sensitivity score (HCC1599) was 0, the drug sensitivity score (MDA-MB-436) was 0 and the drug sensitivity score (MFM-223) was 0.

`O=C1CCC(N2C(=O)c3ccccc3C2=O)C(=O)N1` (configuration not stated) [Thalidomide] gave a drug sensitivity score (BT-549) of 0, a drug sensitivity score (CAL-120) of 0 and a drug sensitivity score (CAL-148) of 0. It also gave a drug sensitivity score (CAL-51) of 0, a drug sensitivity score (CAL-85-1) of 0 and a drug sensitivity score (HCC1143) of 0. For the same compound, the drug sensitivity score (HCC1599) was 0, the drug sensitivity score (MDA-MB-436) was 0 and the drug sensitivity score (MFM-223) was 0.

`CC1(C)NC(=O)N(c2ccc([N+](=O)[O-])c(C(F)(F)F)c2)C1=O` [Nilutamide] showed a drug sensitivity score (BT-549) of 0, a drug sensitivity score (CAL-120) of 0 and a drug sensitivity score (CAL-148) of 0. For the same compound, the drug sensitivity score (CAL-51) was 2.72, the drug sensitivity score (CAL-85-1) was 0 and the drug sensitivity score (HCC1143) was 0. The drug sensitivity score (HCC1599) was 0, the drug sensitivity score (MDA-MB-436) was 0 and the drug sensitivity score (MFM-223) was 0.

With `Cc1ccc(-n2nc(C(C)(C)C)cc2NC(=O)Nc2ccc(OCCN3CCOCC3)c3ccccc23)cc1` [Doramapimod] the drug sensitivity score (BT-549) was 0, the drug sensitivity score (CAL-120) was 0 and the drug sensitivity score (CAL-148) was 0. For the same compound, the drug sensitivity score (CAL-51) was 0, the drug sensitivity score (CAL-85-1) was 0 and the drug sensitivity score (HCC1143) was 0. It also gave a drug sensitivity score (HCC1599) of 0, a drug sensitivity score (MDA-MB-436) of 0 and a drug sensitivity score (MFM-223) of 2.15.

`O=P1(NCCCl)OCCCN1CCCl` (configuration not stated) [Ifosfamide] gave a drug sensitivity score (BT-549) of 0, a drug sensitivity score (CAL-120) of 0 and a drug sensitivity score (CAL-148) of 0. It also gave a drug sensitivity score (CAL-51) of 0, a drug sensitivity score (CAL-85-1) of 0 and a drug sensitivity score (HCC1143) of 0. It also gave a drug sensitivity score (HCC1599) of 0, a drug sensitivity score (MDA-MB-436) of 0 and a drug sensitivity score (MFM-223) of 0.

In the case of `N.N.[Cl][Pt][Cl]` [Cisplatin], the drug sensitivity score (BT-549) was 0, the drug sensitivity score (CAL-120) was 0 and the drug sensitivity score (CAL-148) was 0. The drug sensitivity score (CAL-51) was 0, the drug sensitivity score (CAL-85-1) was 0 and the drug sensitivity score (HCC1143) was 0. It also gave a drug sensitivity score (HCC1599) of 0, a drug sensitivity score (MDA-MB-436) of 0 and a drug sensitivity score (MFM-223) of 0.

With `CN(C)/N=N/c1[nH]cnc1C(N)=O` [Dacarbazine] the drug sensitivity score (BT-549) was 0, the drug sensitivity score (CAL-120) was 0.483 and the drug sensitivity score (CAL-148) was 0. It also gave a drug sensitivity score (CAL-51) of 0, a drug sensitivity score (CAL-85-1) of 0 and a drug sensitivity score (HCC1143) of 0. The drug sensitivity score (HCC1599) was 0, the drug sensitivity score (MDA-MB-436) was 0 and the drug sensitivity score (MFM-223) was 0.

For `Cn1c(CCCC(=O)O)nc2cc(N(CCCl)CCCl)ccc21` [Bendamustine], the drug sensitivity score (BT-549) was 0, the drug sensitivity score (CAL-120) was 0 and the drug sensitivity score (CAL-148) was 0. The drug sensitivity score (CAL-51) was 0, the drug sensitivity score (CAL-85-1) was 0 and the drug sensitivity score (HCC1143) was 0. The drug sensitivity score (HCC1599) was 0, the drug sensitivity score (MDA-MB-436) was 0 and the drug sensitivity score (MFM-223) was 0.
